{
  "source": "ChEMBL document CHEMBL1955715",
  "about": "(Bioorg Med Chem Lett, 2012)",
  "key": {"[1]": {"system": "Rattus norvegicus", "assay": "Wake promoting activity in EEG/EMG Sprague-Dawley rat model assessed as total time awake at 100 mg/kg, ip measured up to 3 hrs (reference value: 65 +/- 9 mins)", "conditions": "route intraperitoneal"}, "[2]": {"system": "Salmonella typhimurium", "assay": "Mutagenic activity in Salmonella Typhimurium by Mini-Ames test", "assay_type": "toxicity, organism-based", "conditions": "salmonella enterica subsp. enterica serovar typhimurium"}, "[3]": {"system": "Plasma", "assay": "Plasma concentration in human", "assay_type": "ADME, cell-free"}, "[4]": {"target": "Cytochrome P450 2C19 (Homo sapiens, UniProt P33261)", "sequence (P33261 whole entry)": "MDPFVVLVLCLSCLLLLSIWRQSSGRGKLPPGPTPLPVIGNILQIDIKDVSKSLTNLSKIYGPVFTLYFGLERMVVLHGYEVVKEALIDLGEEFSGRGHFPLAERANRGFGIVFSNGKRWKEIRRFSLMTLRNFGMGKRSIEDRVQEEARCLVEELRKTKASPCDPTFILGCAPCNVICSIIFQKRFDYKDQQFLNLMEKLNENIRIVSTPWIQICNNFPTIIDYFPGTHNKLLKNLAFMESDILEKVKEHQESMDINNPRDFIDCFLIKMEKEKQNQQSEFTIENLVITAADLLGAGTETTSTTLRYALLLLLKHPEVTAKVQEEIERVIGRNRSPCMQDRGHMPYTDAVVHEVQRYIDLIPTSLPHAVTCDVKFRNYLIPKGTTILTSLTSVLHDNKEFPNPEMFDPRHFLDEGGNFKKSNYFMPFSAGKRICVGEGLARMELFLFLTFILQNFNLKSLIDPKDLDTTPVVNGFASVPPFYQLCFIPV", "assay": "Inhibition of CYP2C19", "assay_type": "ADME"}, "[5]": {"assay": "Metabolic stability in human liver S9 fraction assessed as compound remaining after 2 hrs", "assay_type": "ADME, subcellular", "conditions": "read-out: Stability"}, "[6]": {"assay": "Solubility of the compound in water at pH 7.4", "assay_type": "physicochemical"}, "[7]": {"target": "CYP2D6 (Homo sapiens, UniProt P10635)", "sequence (P10635 whole entry)": "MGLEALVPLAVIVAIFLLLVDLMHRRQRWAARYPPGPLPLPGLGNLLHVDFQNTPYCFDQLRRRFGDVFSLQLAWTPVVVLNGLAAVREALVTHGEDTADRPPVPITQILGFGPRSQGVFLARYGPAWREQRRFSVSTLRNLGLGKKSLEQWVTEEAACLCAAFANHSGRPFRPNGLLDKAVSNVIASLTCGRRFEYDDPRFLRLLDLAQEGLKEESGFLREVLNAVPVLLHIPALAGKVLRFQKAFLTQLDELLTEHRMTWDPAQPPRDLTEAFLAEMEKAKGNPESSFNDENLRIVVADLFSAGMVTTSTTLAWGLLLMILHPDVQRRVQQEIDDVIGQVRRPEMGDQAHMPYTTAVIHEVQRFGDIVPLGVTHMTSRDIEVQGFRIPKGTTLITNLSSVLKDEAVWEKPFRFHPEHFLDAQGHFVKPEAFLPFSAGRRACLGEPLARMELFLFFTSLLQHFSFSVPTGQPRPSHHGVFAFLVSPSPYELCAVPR", "assay": "Inhibition of CYP2D6 at 10 uM", "assay_type": "ADME"}, "[8]": {"target": "CYP3A4 (Homo sapiens, UniProt P08684)", "sequence (P08684 whole entry)": "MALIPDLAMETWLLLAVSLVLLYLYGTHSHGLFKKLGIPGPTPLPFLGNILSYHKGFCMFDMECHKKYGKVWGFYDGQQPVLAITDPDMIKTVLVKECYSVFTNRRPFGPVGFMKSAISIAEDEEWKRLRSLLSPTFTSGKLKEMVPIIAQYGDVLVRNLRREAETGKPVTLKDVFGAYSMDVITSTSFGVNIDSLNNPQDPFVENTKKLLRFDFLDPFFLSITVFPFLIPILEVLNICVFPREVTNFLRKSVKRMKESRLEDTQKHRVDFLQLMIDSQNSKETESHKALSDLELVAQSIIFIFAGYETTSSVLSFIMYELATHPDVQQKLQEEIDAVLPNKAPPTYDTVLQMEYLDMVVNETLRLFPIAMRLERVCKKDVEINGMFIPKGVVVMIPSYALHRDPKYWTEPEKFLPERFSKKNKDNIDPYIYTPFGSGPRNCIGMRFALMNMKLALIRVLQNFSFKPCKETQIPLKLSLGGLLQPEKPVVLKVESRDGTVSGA", "assay": "Inhibition of CYP3A4 at 10 uM", "assay_type": "ADME"}, "[9]": {"target": "Voltage-gated inwardly rectifying potassium channel KCNH2 (Homo sapiens, UniProt Q12809)", "sequence (Q12809 whole entry)": "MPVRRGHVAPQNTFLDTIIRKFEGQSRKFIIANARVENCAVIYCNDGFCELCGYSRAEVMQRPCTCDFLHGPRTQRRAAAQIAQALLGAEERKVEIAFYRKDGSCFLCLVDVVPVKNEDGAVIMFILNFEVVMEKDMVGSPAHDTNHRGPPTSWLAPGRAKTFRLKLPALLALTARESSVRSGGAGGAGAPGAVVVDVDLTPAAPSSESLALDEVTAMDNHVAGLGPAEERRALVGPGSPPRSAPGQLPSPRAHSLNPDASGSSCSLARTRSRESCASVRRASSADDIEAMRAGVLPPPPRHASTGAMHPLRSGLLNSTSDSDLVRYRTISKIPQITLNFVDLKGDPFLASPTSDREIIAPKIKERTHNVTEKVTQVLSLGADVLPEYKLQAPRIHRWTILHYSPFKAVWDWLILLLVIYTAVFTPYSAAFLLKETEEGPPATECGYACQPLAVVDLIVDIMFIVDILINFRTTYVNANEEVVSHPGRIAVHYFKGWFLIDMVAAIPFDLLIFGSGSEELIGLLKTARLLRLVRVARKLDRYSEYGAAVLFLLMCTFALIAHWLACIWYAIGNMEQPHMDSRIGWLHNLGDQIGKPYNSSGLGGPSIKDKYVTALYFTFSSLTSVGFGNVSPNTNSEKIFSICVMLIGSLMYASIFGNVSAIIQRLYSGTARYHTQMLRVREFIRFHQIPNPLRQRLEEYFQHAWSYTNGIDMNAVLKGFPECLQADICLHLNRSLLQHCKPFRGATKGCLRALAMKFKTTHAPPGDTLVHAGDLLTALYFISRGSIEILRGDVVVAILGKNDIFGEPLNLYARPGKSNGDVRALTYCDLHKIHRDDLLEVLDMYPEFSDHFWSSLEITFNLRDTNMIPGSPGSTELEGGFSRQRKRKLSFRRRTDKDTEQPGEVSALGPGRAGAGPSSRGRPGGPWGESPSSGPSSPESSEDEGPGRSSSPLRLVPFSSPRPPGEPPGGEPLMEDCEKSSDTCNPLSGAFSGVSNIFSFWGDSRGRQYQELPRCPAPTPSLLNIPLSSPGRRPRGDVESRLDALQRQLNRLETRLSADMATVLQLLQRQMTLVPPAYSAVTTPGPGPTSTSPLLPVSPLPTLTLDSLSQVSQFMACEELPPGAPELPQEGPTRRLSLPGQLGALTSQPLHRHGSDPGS", "assay": "Inhibition of human ERG at 10 uM"}, "[10]": {"target": "Transporter (Rattus norvegicus, UniProt Q63380)", "sequence (Q63380 whole entry)": "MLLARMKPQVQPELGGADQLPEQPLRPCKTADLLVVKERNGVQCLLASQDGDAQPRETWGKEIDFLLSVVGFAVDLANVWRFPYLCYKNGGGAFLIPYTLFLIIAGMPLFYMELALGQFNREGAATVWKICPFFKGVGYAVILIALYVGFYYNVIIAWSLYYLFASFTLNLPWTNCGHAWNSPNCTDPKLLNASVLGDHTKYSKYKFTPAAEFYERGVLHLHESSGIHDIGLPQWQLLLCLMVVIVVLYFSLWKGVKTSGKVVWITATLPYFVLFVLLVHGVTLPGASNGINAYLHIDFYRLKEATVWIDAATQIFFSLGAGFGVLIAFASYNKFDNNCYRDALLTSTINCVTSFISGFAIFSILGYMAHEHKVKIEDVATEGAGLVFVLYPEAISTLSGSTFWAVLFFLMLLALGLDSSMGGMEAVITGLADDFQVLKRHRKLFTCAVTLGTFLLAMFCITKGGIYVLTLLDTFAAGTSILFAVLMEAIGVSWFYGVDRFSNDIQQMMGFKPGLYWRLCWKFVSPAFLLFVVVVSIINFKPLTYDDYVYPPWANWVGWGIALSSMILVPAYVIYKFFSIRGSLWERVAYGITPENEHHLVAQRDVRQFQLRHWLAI", "assay": "Inhibition of rat NET-mediated norepinephrine reuptake"}, "[11]": {"target": "T1, Sodium-dependent dopamine transporter (Rattus norvegicus, UniProt P23977)", "T1 sequence (P23977 whole entry)": "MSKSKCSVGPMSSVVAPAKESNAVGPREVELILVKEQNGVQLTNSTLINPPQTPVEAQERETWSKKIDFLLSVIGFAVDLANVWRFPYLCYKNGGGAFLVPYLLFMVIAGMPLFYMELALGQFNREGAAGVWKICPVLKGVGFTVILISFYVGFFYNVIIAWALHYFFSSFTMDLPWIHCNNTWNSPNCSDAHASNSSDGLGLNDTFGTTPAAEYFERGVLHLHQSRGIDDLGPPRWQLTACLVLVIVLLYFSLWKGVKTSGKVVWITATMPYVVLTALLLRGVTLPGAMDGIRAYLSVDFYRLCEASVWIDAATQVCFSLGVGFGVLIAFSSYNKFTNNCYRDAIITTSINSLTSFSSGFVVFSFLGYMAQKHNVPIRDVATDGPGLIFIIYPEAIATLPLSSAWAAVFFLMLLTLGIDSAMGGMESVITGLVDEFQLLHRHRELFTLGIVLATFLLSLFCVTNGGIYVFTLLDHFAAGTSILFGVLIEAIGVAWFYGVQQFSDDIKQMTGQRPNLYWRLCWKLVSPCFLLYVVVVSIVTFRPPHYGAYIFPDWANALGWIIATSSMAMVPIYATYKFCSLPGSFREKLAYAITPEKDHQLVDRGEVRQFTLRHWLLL", "assay": "Inhibition of rat DAT-mediated dopamine reuptake"}, "[12]": {"target": "T1, Sodium-dependent dopamine transporter", "assay": "Inhibition of rat DAT"}, "[13]": {"system": "Rattus norvegicus", "assay": "Wake promoting activity in po dosed EEG/EMG Sprague-Dawley rat model assessed as slow wave sleep and rapid eye movement sleep", "assay_type": "functional, organism-based"}, "[14]": {"target": "Sodium-dependent serotonin transporter (Rattus norvegicus, UniProt P31652)", "sequence (P31652 whole entry)": "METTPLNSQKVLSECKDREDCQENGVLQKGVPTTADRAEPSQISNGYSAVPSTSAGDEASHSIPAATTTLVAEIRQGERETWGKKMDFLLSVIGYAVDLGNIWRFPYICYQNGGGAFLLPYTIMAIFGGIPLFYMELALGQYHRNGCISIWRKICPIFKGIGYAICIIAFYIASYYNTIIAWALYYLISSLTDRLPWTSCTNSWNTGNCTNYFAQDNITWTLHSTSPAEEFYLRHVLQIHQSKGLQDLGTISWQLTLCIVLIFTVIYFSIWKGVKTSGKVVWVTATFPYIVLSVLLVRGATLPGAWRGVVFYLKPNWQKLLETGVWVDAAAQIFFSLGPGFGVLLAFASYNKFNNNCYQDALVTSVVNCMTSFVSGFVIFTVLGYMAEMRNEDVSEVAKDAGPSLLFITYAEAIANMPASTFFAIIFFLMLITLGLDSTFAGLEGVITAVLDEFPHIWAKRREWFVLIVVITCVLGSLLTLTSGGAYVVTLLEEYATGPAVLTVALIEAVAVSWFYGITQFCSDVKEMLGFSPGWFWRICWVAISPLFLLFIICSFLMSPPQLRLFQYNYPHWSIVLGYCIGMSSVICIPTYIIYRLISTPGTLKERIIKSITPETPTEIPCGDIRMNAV", "assay": "Inhibition of rat SERT-mediated serotonin reuptake"}},
  "note": "The source made the active and inactive calls. The rule behind the calls is not given here.",
  "data": [
    {"compound": "NC(=O)C[S+]([O-])Cc1ccccc1-c1ccccc1F", "note": "(stereo not drawn)", "values": [
      {"measurement": "Time", "setting": "[1]", "value": 64, "unit": "min"}
    ]},
    {"compound": "Cc1ccccc1-c1cccc(C[S+]([O-])CC(N)=O)c1", "note": "(stereo not drawn)", "values": [
      {"measurement": "Time", "setting": "[1]", "value": 117, "unit": "min"}
    ]},
    {"compound": "N#Cc1cccc(-c2ccccc2C[S+]([O-])CC(N)=O)c1", "note": "(stereo not drawn)", "values": [
      {"measurement": "Time", "setting": "[1]", "value": 99, "unit": "min"}
    ]},
    {"compound": "NC(=O)C[S+]([O-])Cc1ccccc1-c1cccc(Cl)c1", "note": "(stereo not drawn)", "values": [
      {"measurement": "Time", "setting": "[1]", "value": 106, "unit": "min"}
    ]},
    {"compound": "NC(=O)C[S+]([O-])Cc1ccccc1-c1ccccc1Cl", "note": "(stereo not drawn)", "values": [
      {"measurement": "Time", "setting": "[1]", "value": 49, "unit": "min"}
    ]},
    {"compound": "NC(=O)C[S+]([O-])Cc1ccc(-c2ccc(Cl)cc2)cc1", "note": "(stereo not drawn)", "values": [
      {"measurement": "Time", "setting": "[1]", "value": 92, "unit": "min"}
    ]},
    {"compound": "CC(=O)c1ccc(-c2ccccc2C[S+]([O-])CC(N)=O)cc1", "note": "(stereo not drawn)", "values": [
      {"measurement": "Time", "setting": "[1]", "value": 77, "unit": "min"}
    ]},
    {"compound": "NC(=O)C[S+]([O-])Cc1ccccc1-c1cccc(C(N)=O)c1", "note": "(stereo not drawn)", "values": [
      {"measurement": "Time", "setting": "[1]", "value": 62, "unit": "min"}
    ]},
    {"compound": "NC(=O)C[S+]([O-])Cc1ccccc1-c1ccc(Br)cc1", "note": "(stereo not drawn)", "values": [
      {"measurement": "Time", "setting": "[1]", "value": 174, "unit": "min"}
    ]},
    {"compound": "COc1ccccc1-c1ccccc1C[S+]([O-])CC(N)=O", "note": "(stereo not drawn)", "values": [
      {"measurement": "Time", "setting": "[1]", "value": 86, "unit": "min"}
    ]},
    {"compound": "Cc1ccc(-c2ccccc2C[S+]([O-])CC(N)=O)cc1", "note": "(stereo not drawn)", "values": [
      {"measurement": "Time", "setting": "[1]", "value": 146, "unit": "min"}
    ]},
    {"compound": "NC(=O)C[S+]([O-])Cc1ccccc1-c1ccc(F)cc1", "note": "(stereo not drawn)", "values": [
      {"measurement": "Time", "setting": "[1]", "value": 147, "unit": "min"}
    ]},
    {"compound": "NC(=O)C[S+]([O-])C(c1ccccc1)c1ccccc1", "note": "(stereo not drawn) [MODAFINIL]", "values": [
      {"measurement": "Activity", "setting": "[2]", "value": "Non-toxic"},
      {"measurement": "concentration", "setting": "[3]", "value": "> 30", "unit": "µM"},
      {"measurement": "IC50", "setting": "[4]", "value": 11, "unit": "µM"},
      {"measurement": "remaining at 2 h", "setting": "[5]", "value": 77, "unit": "%"},
      {"measurement": "solubility", "setting": "[6]", "value": "> 100", "unit": "µg/mL"},
      {"measurement": "inhibition at 10 µM", "setting": "[7]", "value": "< 10", "unit": "%"},
      {"measurement": "inhibition at 10 µM", "setting": "[8]", "value": "< 10", "unit": "%"},
      {"measurement": "Time", "setting": "[1]", "value": 117, "unit": "min"}
    ]},
    {"compound": "NC(=O)C[S+]([O-])Cc1ccccc1-c1ccc(OC(F)(F)F)cc1", "note": "(stereo not drawn)", "values": [
      {"measurement": "Time", "setting": "[1]", "value": 108, "unit": "min"}
    ]},
    {"compound": "NC(=O)C[S+]([O-])Cc1ccccc1-c1ccc(Cl)cc1", "note": "(racemic)", "values": [
      {"measurement": "Activity", "setting": "[2]", "value": "Non-toxic"},
      {"measurement": "inhibition (INH)", "setting": "[9]", "value": "Not Active"},
      {"measurement": "IC50", "setting": "[10]", "value": 10, "unit": "µM"},
      {"measurement": "IC50", "setting": "[11]", "value": 0.83, "unit": "µM"},
      {"measurement": "IC50", "setting": "[12]", "value": 0.6, "unit": "µM"},
      {"measurement": "IC50", "setting": "[4]", "value": 19, "unit": "µM"},
      {"measurement": "remaining at 2 h", "setting": "[5]", "value": 94, "unit": "%"},
      {"measurement": "solubility", "setting": "[6]", "value": "> 100", "unit": "µg/mL"},
      {"measurement": "Activity", "setting": "[13]", "value": "Active"},
      {"measurement": "inhibition at 10 µM", "setting": "[7]", "value": "< 10", "unit": "%"},
      {"measurement": "inhibition at 10 µM", "setting": "[8]", "value": "< 10", "unit": "%"},
      {"measurement": "Time", "setting": "[1]", "value": 176, "unit": "min"},
      {"measurement": "IC50", "setting": "[14]", "value": "> 300", "unit": "µM"}
    ]},
    {"compound": "NC(=O)C[S+]([O-])Cc1cccc(-c2ccc(Cl)cc2)c1", "note": "(stereo not drawn)", "values": [
      {"measurement": "Time", "setting": "[1]", "value": 96, "unit": "min"}
    ]},
    {"compound": "NC(=O)C[S+]([O-])Cc1ccc(-c2ccccc2)cc1", "note": "(stereo not drawn)", "values": [
      {"measurement": "Time", "setting": "[1]", "value": 100, "unit": "min"}
    ]},
    {"compound": "NC(=O)C[S+]([O-])Cc1ccccc1-c1ccccc1", "note": "(stereo not drawn)", "values": [
      {"measurement": "Time", "setting": "[1]", "value": 119, "unit": "min"}
    ]},
    {"compound": "N#Cc1ccc(-c2ccccc2C[S+]([O-])CC(N)=O)cc1", "note": "(stereo not drawn)", "values": [
      {"measurement": "Time", "setting": "[1]", "value": 65, "unit": "min"}
    ]}
  ]
}
